From ChEMBL document CHEMBL1201862, “PubChem BioAssay data set” (2004)
Active and inactive are the calls of the source.

Tests used:
[1] = ADAM10 protease inhibitors, dose response, selectivity assay for ADAM17 exosite inhibitor project, biochemical, FRET peptide substrate, recombinant human ADAM10 (AID 743259);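 note: ADAM10 enzyme cleaving a FRET peptide substrate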
[2] = molecular target: Disintegrin and metalloproteinase domain-containing protein 17 (Homo sapiens, UniProt P78536); experiment: exosite inhibitors of ADAM17, dose response, biochemical (AID 743260)
[3] = microbe, parasite or virus in culture; type: functional; conditions: Mycobacterium tuberculosis
[4] = molecular target: Heat shock protein HSP 90-alpha (Homo sapiens, UniProt P07900); experiment: Luminescence-based dose response biochemical high throughput screening assay for inhibitors of the Heat Shock Protein 90 (HSP90). [Related pubchem assays: 1831 (Summary AID.), 1846 (Confirmation screen.), 1789 (Primary screen.)]
[5] = molecular target: Transthyretin (Homo sapiens, UniProt P02766); experiment: Luminescence-based cell-based high throughput dose response assay to identify activators of Transthyretin (TTR) transcription.; type: functional
[6] = inhibitors of firefly luciferase expression or activity, dose response, H4 neuroglioma cells, luminescence (AID 1990); type: functional, cell-based
[7] = inhibitors of SNCA 5'UTR-driven reporter translation, confirmation, H4 neuroglioma cells, luminescence (AID 1988); type: functional, cell-based
[8] = Luminescence Cell-Based Dose Response HTS to Identify Inhibitors of 5'UTR Stem-Loop Driven Prion Protein mRNA Translation in H4 Neuroglioblastoma Cells. [Related pubchem assays: 1827 (Project Summary), 1813 (Primary HTS)]; type: functional
[9] = inhibitors of HIV Env-driven cell fusion, dose response, cherry-pick (AID 652057); type: functional, cell-based
[10] = molecular target: COUP transcription factor 2 (Homo sapiens, UniProt P24468); experiment: Luminescence-based cell-based high throughput dose response assay to identify inhibitors of COUP-TFII (NR2F2).; type: functional;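 note: HEK293 cells transiently cotransfected with COUP-TFII expression vector and reporter; luciferase reporter luminescence driven by COUP-TFII from the pX2-168 reporter plasmid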
[11] = off-target signal loss in HeLa-CEM21 co-culture – HeLa F-luc CTL cells, cherry-picked, counter-screen for HIV-1 Env fusion inhibitor project, dose response (AID 652040); type: functional, cell-based;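 note: potency for signal decrease marking cytotoxic or nonspecific inhibition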
[12] = CEM21 lymphoblast cell cytotoxicity, dose response, cytotoxicity control for viral fusion inhibitor project, CellTiter-Glo luminescence, cherry-picked (AID 652042); type: functional, cell-based;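 note: potency for signal decrease meaning cytotoxicity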
[13] = ZM109 Env clade C HIV-1 fusion inhibitors, dose response, HeLa effector, CEM target cells, luciferase, cherry-pick (AID 652058); type: functional, cell-based
[14] = inhibitors of clade B AD8 Env fusion, dose response, cell-based, cherry-pick (AID 652062); type: functional;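 note: luciferase signal from cell-cell fusion driven by HIV-1 clade B AD8 Env; potency is for inhibitors of fusion seen as a drop in luminescence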
[15] = molecular target: fMet-Leu-Phe receptor (Homo sapiens, UniProt P21462); experiment: FPR ligands, dose response (AID 519); type: functional
[16] = HEK293 Cytotoxicity Assay Measured in Cell-Based System Using Plate Reader - 7071-01_Inhibitor_Dose_CherryPick_Activity_Set2.; type: functional
[17] = system: HEK293; experiment: HEK293T cell cytotoxicity, dose response, cytotoxicity control, ATP luminescence, cherry-pick samples (AID 687005); type: functional, cell-based; conditions: Homo sapiens;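 note: cells exposed to compound for 48 hours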
[18] = molecular target: Kallikrein-7 (Homo sapiens, UniProt P49862); experiment: Fluorescence Intensity-based biochemical primary high throughput dose response assay to identify activators of kallikrein-7 (K7) zymogen.
[19] = molecular target: T1, Endoribonuclease toxin MazF (Escherichia coli K-12, UniProt P0AE70); experiment: MazF toxin RNase activators, dose response, biochemical, fluorescence, single-stranded RNA substrate, uHTS hits (AID 588481); type: functional
T1 sequence (P0AE70 whole entry): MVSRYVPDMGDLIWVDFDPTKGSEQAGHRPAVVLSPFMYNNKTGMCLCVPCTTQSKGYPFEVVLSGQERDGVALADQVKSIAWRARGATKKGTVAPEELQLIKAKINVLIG

[20] = molecular target: T2, Caspase-7 (Homo sapiens, UniProt P55210); experiment: human caspase-7 inhibitors, dose response, selectivity assay for caspase-6 inhibitor project, biochemical, DEVD-R110 fluorescence, cherry-pick (AID 743295)
T2 sequence (P55210 whole entry): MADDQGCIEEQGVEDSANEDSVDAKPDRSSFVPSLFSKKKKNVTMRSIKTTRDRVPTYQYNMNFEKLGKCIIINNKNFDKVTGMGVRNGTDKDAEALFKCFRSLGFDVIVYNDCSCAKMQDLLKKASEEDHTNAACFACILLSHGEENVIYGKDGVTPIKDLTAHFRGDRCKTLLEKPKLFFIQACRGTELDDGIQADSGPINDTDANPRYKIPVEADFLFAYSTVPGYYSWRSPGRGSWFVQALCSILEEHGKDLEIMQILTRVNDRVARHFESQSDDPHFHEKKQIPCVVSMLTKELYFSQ

[21] = molecular target: T1, Endoribonuclease toxin MazF; experiment: fluorescent RNA oligo signal without MazF, dose response, counter-screen for MazEF activator project, biochemical, fluorescence, single-stranded RNase substrate (AID 588502); type: functional
[22] = molecular target: T3, Caspase-6 (Homo sapiens, UniProt P55212); experiment: human caspase-6 inhibitors, dose response, biochemical, VEID-R110 fluorescence, cherry-pick (AID 720632)
T3 sequence (P55212 whole entry): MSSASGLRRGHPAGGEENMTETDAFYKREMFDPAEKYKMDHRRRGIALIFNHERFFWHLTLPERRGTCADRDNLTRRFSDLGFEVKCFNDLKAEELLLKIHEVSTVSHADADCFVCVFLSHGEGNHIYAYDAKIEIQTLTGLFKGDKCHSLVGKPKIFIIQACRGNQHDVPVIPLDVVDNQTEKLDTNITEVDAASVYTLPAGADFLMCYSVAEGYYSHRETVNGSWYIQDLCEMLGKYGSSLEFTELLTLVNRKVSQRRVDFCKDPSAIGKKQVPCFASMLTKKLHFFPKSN

[23] = molecular target: Glucose-6-phosphate 1-dehydrogenase (Homo sapiens, UniProt P11413); experiment: human G6PD enzyme inhibitors, dose response, selectivity assay for P. falciparum G6PD inhibitor project, biochemical, fluorescence (AID 504792); type: functional
[24] = molecular target: 1-phosphatidylinositol 4,5-bisphosphate phosphodiesterase gamma-1 (Homo sapiens, UniProt P19174); experiment: Counterscreen for inhibitors of phospholipase C isozymes (PLC-B3): Fluorescence-based biochemical high throughput dose response assay to identify inhibitors of phospholipase C isozymes (PLC-gamma1).
[25] = molecular target: 1-phosphatidylinositol 4,5-bisphosphate phosphodiesterase beta-3 (Homo sapiens, UniProt Q01970); experiment: Fluorescence-based biochemical high throughput dose response assay to identify inhibitors of phospholipase C isozymes (PLC-B3).
[26] = HepG2 cell cytotoxicity, dose response, cytotoxicity control for Shn3 inhibitor project, CellTiter-Glo, cherry-picked (AID 624134); type: functional, cell-based
[27] = Shn3 3'UTR reporter inhibitors, dose response, cell-based, Clone20 osteoblasts, firefly luciferase, cherry-picked (AID 624132); type: functional;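 note: firefly luciferase luminescence from reporter carrying the Shn3 3'UTR in osteoblasts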
[28] = control 3'UTR Renilla luciferase suppression, dose response, counter-screen for Shn3 inhibitor project, cell-based, Clone20-Shn3RL, cherry-picked (AID 624133); type: functional
[29] = NIH:OVCAR-3 ovarian cancer cell cytotoxicity, dose response, PAX8 inhibitor project, plate reader, dry powder samples (AID 743044); type: functional, cell-based
[30] = cytotoxicity in OVCAR8 ovarian cancer cells, dose response, PAX8 project, cell-based, plate reader, dry powder samples (AID 743197); type: functional; conditions: OVCAR-8
[31] = molecular target: Paired box protein Pax-8 (Homo sapiens, UniProt Q06710); experiment: inhibitors of PAX8-driven TPO luciferase reporter, dose response, RMG-I cells, cherry-pick (AID 687027); type: functional, cell-based;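 note: luciferase reporter driven by Pax8 target thyroperoxidase promoter measured by SteadyGlo luminescence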
[32] = IGROV1 ovarian cancer cell cytotoxicity, dose response, PAX8 inhibitor project, plate reader, dry powder samples (AID 743043); type: functional, cell-based; conditions: IGROV-1
[33] = molecular target: Potassium channel subfamily K member 3 (Homo sapiens, UniProt O14649); experiment: TASK1 (KCNK3) potassium channel inhibitors, SAR follow-up, CHO cells, FluxOR thallium flux (AID 652212); type: functional
[34] = molecular target: Potassium channel subfamily K member 9 (Homo sapiens, UniProt Q9NPC2); experiment: TASK3 (KCNK9) channel inhibitors, thallium flux, SAR follow-up, selectivity assay for TASK1 inhibitor project, cell-based, FluxOR thallium flux, concentration-response (AID 652211); type: functional;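 note: potency is for inhibitors of the channel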
[35] = inhibitors of PGC1a acetylation in cells, dose response, cell-based, cherry-picked samples (AID 720514); type: functional;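 note: potency may reflect raised or lowered acetylation signal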
[36] = Glucagon-like peptide 1 release potency, NCI-H716 cell line, dose-response, half-maximal inhibitory concentration (AID 1117344); type: functional, cell-based
[37] = half-maximal inhibitory concentration for glucagon-like peptide-1 release, STC-1 cell line, dose-response (AID 1117345); type: functional, cell-based

Chain of Paired box protein Pax-8 (Q06710 whole entry): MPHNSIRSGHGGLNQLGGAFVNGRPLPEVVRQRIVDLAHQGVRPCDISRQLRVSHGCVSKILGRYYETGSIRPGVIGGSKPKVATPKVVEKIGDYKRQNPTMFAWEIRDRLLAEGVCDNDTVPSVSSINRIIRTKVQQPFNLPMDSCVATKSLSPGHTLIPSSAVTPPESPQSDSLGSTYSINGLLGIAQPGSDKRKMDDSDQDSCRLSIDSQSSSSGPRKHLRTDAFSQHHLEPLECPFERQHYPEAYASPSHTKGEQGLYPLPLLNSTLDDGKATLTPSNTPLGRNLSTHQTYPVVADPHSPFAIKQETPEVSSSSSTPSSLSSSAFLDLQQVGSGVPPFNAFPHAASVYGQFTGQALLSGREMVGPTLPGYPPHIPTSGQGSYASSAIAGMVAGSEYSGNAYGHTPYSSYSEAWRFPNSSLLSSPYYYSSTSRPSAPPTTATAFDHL
Chain of fMet-Leu-Phe receptor (P21462 whole entry): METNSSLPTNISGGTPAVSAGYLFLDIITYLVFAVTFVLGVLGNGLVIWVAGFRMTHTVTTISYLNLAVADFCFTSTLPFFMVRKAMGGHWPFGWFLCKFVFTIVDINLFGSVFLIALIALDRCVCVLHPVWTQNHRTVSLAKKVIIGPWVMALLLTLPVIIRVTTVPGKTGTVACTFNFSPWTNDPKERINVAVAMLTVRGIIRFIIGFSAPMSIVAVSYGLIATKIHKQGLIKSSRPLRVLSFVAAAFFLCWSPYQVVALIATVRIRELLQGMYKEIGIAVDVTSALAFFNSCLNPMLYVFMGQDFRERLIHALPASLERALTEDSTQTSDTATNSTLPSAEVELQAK
Chain of COUP transcription factor 2 (P24468 whole entry, the tested form may be a part): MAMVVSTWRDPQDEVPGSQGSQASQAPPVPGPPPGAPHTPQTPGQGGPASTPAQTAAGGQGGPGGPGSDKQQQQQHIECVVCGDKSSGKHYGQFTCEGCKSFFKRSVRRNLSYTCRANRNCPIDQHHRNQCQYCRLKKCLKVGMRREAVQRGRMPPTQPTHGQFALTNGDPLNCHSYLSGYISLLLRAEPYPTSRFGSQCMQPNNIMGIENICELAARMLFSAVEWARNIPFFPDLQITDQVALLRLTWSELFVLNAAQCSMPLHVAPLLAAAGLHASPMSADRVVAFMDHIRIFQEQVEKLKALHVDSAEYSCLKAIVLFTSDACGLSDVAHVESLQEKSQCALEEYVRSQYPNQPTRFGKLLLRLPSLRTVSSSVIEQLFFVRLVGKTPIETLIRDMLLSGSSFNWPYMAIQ
Chain of Disintegrin and metalloproteinase domain-containing protein 17 (P78536 whole entry, the tested form may be a part): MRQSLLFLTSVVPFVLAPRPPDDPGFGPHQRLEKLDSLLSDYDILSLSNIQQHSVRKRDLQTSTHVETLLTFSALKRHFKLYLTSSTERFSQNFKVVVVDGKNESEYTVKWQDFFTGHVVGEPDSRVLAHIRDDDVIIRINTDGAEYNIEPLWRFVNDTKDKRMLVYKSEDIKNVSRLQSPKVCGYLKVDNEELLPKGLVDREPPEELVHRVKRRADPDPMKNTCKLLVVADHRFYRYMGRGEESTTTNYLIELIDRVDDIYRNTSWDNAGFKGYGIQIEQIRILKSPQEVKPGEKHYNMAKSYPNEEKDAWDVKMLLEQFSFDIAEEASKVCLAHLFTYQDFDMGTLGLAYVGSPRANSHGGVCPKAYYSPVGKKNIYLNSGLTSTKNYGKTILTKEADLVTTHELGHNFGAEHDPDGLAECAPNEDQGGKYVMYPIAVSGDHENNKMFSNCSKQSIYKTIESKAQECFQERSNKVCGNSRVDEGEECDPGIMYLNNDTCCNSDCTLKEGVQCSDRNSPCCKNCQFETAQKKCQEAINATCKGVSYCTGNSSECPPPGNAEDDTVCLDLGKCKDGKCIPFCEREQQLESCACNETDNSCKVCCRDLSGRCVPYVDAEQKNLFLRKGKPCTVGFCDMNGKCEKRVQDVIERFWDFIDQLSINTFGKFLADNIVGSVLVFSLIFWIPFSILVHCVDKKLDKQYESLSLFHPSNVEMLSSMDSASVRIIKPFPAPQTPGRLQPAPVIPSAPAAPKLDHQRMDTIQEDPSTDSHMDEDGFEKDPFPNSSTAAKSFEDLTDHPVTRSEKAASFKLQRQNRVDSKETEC
Chain of Potassium channel subfamily K member 3 (O14649 whole entry): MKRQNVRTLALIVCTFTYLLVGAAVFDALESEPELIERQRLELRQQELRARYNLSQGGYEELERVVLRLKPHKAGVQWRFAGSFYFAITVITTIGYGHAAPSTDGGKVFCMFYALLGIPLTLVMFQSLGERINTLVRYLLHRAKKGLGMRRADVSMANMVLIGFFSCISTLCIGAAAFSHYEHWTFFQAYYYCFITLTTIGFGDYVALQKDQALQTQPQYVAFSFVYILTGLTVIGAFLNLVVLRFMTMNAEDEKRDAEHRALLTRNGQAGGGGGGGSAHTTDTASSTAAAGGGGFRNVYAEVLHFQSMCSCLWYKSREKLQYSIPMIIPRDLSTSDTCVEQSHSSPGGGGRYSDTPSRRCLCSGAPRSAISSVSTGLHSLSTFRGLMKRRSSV
Chain of Potassium channel subfamily K member 9 (Q9NPC2 whole entry): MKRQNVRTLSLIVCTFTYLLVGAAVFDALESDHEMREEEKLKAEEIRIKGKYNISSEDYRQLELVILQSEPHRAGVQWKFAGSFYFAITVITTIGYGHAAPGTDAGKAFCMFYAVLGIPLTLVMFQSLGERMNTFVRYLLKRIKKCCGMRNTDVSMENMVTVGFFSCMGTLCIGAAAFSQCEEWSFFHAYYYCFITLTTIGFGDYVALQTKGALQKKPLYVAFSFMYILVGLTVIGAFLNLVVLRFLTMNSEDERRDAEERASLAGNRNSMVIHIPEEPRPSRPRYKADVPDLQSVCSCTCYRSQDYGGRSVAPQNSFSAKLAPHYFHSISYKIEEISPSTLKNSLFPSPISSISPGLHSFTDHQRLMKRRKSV
Chain of 1-phosphatidylinositol 4,5-bisphosphate phosphodiesterase gamma-1 (P19174 whole entry): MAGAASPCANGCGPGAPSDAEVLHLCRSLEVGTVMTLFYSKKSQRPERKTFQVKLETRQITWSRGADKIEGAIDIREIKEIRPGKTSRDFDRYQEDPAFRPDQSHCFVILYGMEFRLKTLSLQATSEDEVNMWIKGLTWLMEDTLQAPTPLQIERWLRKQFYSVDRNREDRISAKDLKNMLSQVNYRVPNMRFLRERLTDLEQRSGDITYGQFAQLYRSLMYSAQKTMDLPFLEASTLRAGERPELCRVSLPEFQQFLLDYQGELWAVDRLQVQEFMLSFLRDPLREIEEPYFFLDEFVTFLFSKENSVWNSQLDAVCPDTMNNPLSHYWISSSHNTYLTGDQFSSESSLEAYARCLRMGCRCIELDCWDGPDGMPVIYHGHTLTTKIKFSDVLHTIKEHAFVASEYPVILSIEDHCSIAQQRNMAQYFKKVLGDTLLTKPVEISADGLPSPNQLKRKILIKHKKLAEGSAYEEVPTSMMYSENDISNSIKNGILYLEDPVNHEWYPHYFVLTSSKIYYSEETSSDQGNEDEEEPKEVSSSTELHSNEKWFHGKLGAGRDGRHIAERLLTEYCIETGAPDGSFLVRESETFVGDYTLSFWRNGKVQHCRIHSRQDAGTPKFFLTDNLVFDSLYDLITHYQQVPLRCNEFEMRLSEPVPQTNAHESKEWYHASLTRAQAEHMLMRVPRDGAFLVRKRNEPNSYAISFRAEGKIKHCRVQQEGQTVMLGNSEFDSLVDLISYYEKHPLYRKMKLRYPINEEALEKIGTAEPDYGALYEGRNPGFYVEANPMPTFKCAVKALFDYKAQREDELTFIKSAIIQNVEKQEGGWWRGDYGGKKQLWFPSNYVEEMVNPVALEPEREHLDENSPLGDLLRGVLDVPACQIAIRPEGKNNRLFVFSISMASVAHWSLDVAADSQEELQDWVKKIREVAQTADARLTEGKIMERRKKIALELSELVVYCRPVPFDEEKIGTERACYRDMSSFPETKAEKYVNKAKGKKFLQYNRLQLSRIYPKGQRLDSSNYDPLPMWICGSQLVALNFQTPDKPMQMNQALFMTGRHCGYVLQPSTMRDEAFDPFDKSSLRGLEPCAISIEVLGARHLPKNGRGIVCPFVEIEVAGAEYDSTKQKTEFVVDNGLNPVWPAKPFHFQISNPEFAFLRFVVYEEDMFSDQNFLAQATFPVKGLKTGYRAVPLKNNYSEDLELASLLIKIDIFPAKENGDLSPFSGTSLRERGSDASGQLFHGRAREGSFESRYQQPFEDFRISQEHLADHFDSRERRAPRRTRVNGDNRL
Chain of Glucose-6-phosphate 1-dehydrogenase (P11413 whole entry): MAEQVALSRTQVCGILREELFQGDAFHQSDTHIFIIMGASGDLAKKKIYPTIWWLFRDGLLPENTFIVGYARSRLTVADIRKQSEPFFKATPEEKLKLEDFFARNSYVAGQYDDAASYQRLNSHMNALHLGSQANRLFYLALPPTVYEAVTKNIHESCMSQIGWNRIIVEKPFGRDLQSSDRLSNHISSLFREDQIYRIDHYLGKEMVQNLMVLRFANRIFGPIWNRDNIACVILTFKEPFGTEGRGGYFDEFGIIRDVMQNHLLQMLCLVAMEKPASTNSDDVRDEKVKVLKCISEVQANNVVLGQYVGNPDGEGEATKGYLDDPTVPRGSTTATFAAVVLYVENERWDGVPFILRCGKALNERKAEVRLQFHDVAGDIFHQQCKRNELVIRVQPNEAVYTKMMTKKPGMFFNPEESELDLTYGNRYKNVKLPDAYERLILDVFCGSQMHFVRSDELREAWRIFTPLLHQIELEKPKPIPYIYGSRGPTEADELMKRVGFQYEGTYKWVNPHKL
Chain of Kallikrein-7 (P49862 whole entry): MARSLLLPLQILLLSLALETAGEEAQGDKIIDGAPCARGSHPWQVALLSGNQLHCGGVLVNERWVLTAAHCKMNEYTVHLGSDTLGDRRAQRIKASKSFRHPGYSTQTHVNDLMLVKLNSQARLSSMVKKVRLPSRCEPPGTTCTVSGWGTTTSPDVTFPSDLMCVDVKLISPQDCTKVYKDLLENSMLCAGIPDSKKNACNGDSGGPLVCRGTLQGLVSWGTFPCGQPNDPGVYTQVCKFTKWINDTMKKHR

CCOc1ccc(-c2[nH]ncc2-c2ccc(Cl)cc2)c(O)c1
IC50 [1]: 23.7 µM (inactive)
IC50 [2]: > 69.5 µM (inactive)
CC50 [3]: > 40 µM (active)

COc1ccc(-c2cn3c(C)c(C(=O)Nc4cccc(C)n4)sc3n2)cc1
IC50 [4]: 0.327 µM (active)

Cc1ccc(CNC(=O)Cc2ccc(-c3ccccc3)cc2)cc1
EC50 [5]: > 167 µM (inactive)
EC50 [6]: > 120 µM (not active)
EC50 [7]: 6.89 µM (active)
EC50 [8]: 10.4 µM (active)

Cc1cccc(Nc2nc(-c3c(C)nc4ccccn34)cs2)c1
AC50 [9]: 6.19 µM (active)
IC50 [10]: 8.41 µM (active)
AC50 [11]: 2.7 µM (active)
AC50 [12]: 29.6 µM (active)
AC50 [13]: 7.64 µM (active)
AC50 [14]: 7.63 µM (active)

CCc1cc(C(=O)OC)c(NC(=O)C2CC(=O)NN2Cc2ccccc2)s1 (stereo not given)
IC50 [1]: > 69.5 µM (inactive)
IC50 [2]: > 69.5 µM (inactive)

CCOc1ccc(C(=O)C2=C(O)C(=O)N(CC3CCCO3)C2c2ccc(C)o2)cc1 (stereo not given)
Ki [15]: 21.1 µM (inactive)

CC(NC(=O)COc1ccccc1-c1ccccc1)c1ccccc1 (stereo not given)
AC50 [16]: 35.9 µM (active)
AC50 [17]: 35.9 µM (active)

COc1ccccc1C1C=C(c2ccccc2)Nc2nnnn21 (stereo not given)
EC50 [18]: 12.1 µM (inactive)

Cc1ccc([S+]([O-])c2ccc([N+](=O)[O-])c3nonc23)cc1 (stereo not given)
EC50 [19]: > 99 µM (inactive)
AC50 [20]: > 70 µM (inactive)
EC50 [21]: > 99 µM (inactive)
AC50 [22]: 2.56 µM (active)
IC50 [23]: 42.3 µM (inactive)

O=C(c1cccc(S(=O)(=O)N2CCN(c3ccc(F)cc3)CC2)c1)N1CCCC(C(F)(F)F)C1 (stereo not given)
IC50 [24]: > 122 µM (inactive)
IC50 [25]: > 122 µM (inactive)
AC50 [26]: 2.61 µM (active)
AC50 [27]: 0.942 µM (active)
AC50 [28]: 8.1 µM (active)

O=C(C1=C(O)C(=O)N(Cc2ccccc2)C1c1cccnc1)c1ccco1 (stereo not given)
Ki [15]: 30.5 µM (inactive)

O=C(C[C@H]1CC[C@H]2[C@@H](COC[C@H](O)CN2Cc2cccc(Cl)c2)O1)Nc1nccs1
AC50 [16]: 16.7 µM (active)
AC50 [17]: 16.7 µM (active)

C[C@@H]1CN([C@H](C)CO)C(=O)c2cc(NC(=O)CCC(F)(F)F)ccc2O[C@@H](C)CCCCO[C@@H]1CN(C)Cc1ccc(C(F)(F)F)cc1
AC50 [29]: 26.5 µM (active)
AC50 [30]: 45.3 µM (active)
AC50 [31]: 8.65 µM (active)

C[C@@H]1CN([C@@H](C)CO)C(=O)c2cc(NC(=O)Cc3ccccc3)ccc2O[C@@H](C)CCCCO[C@@H]1CN(C)Cc1ccc(C(F)(F)F)cc1
AC50 [30]: > 70 µM (inactive)
AC50 [32]: 31.7 µM (active)
AC50 [31]: 7.23 µM (active)

O=C(c1cccs1)C1CCN(c2ncnc3sccc23)CC1
IC50 [10]: 4.18 µM (active)

COc1ccccc1C(=O)Nc1cc(NC(=O)c2cccc(C)c2)ccc1F
IC50 [33]: 0.159 µM (active)
IC50 [34]: 6.31 µM (active)

N#Cc1ccc(-c2ccc([C@@H]3[C@H]4CNC[C@@H]3N4Cc3ccc4c(c3)OCO4)cc2)cc1
AC50 [35]: 16.9 µM (active)

CCOc1ccccc1NC(=O)c1cccc(NC(=O)c2ccccc2OC)c1
IC50 [33]: 0.007 µM (active)
IC50 [34]: 1.18 µM (active)

Cc1ccccc1Cn1cc(COC(=O)N(C)Cc2ccccc2)nn1
EC50 [5]: > 167 µM (inactive)

Cc1c(C)n(CCN(C)C)c2ccc(C(=O)OCCN(C)C)cc12 [AMINDOCATE]
IC50 [36]: > 40 µM (inactive)
IC50 [37]: 1.2 µM (active)

O=c1[nH]sc2cc(Cl)ccc12 [TICLATONE]
IC50 [36]: > 40 µM (inactive)
IC50 [37]: > 40 µM (inactive)
